The record followed here is the supplement of paper PMC10307832.

Holding throughout (experiment): relative viability (nuclei count vs DMSO), 5 days (fraction); higher = more cells survive
Compound in assay [1]: C1CNCCC1C2=CC(=NN2)C3=CC=NC=C3 + CS(=O)(=O)CCNCc1ccc(-c2ccc3ncnc(Nc4ccc(OCc5cccc(F)c5)c(Cl)c4)c3c2)o1 [Lapatinib] (partner 2 µM)
The gist of the method: (§1)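 Values are medians from duplicate plates. Each reflects relative viability, defined as the nuclei count of treated wells over that of vehicle wells. Lung cancer cell lines in 1536-well plates were pin-tool dosed one day after seeding with one drug alone or with a fixed anchor-drug dose plus five library-drug doses (not always all listed) in √10 steps, then fixed, stained and imaged at 4× after 5 days.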

Compound in assay [2]: C1CNCCC1C2=CC(=NN2)C3=CC=NC=C3 + CC1(C)CCC(c2ccc(Cl)cc2)=C(CN2CCN(c3ccc(C(=O)NS(=O)(=O)c4ccc(N[C@H](CCN5CCOCC5)CSc5ccccc5)c(S(=O)(=O)C(F)(F)F)c4)cc3)CC2)C1 [Navitoclax] (partner 0.5 µM)
The gist of the method: as §1

Compound in assay [3]: O[C@H]1CC[C@H](Nc2ncc3nc(Nc4c(F)cc(F)cc4F)n([C@H]4CCOC4)c3n2)CC1 [Tanzisertib] + Cc1nc(Nc2ncc(C(=O)Nc3c(C)cccc3Cl)s2)cc(N2CCN(CCO)CC2)n1 [Dasatinib] (partner 0.075 µM)
Put shortly: as §1

Compound in assay [4]: C[C@@H](N)c1ccc(C(=O)Nc2ccnc3[nH]ccc23)cc1 + O=C(CCCCCCC(=O)Nc1ccccc1)NO [Vorinostat] (partner 1 µM)
The gist of the method:
as §1

In the case of NCI-H23, the relative viability in assay [1] (first compound 0.08 µM) stood at 1.15; in assay [1] (first compound 0.8 µM), 1.34; in assay [1] (first compound 2.53 µM) it was 1.49; in assay [1] (first compound 8 µM) it was 1.22; in assay [2] (first compound 0.08 µM) it was 0.711; in assay [2] (first compound 0.8 µM) it was 0.908. Also, the relative viability amounted to 1.09 in assay [2] (first compound 2.53 µM); 0.948 in assay [2] (first compound 8 µM); 0.918 in assay [3] (first compound 0.08 µM); 0.814 in assay [3] (first compound 0.253 µM); 0.726 in assay [3] (first compound 0.8 µM); 0.694 in assay [3] (first compound 2.53 µM). Besides, the relative viability is 0.51 in assay [3] (first compound 8 µM); 0.638 in assay [4] (first compound 0.04 µM); 0.577 in assay [4] (first compound 0.1265 µM); 0.846 in assay [4] (first compound 0.4 µM); 0.658 in assay [4] (first compound 4 µM).
Regarding NCI-H358, the relative viability in assay [1] (first compound 0.08 µM) worked out at 0.388; in assay [1] (first compound 0.8 µM) it was 0.463; in assay [1] (first compound 2.53 µM), 0.43; in assay [1] (first compound 8 µM), 0.462; in assay [3] (first compound 0.08 µM), 0.185; in assay [3] (first compound 0.253 µM), 0.159. Further, the relative viability in assay [3] (first compound 0.8 µM) stood at 0.164; in assay [3] (first compound 2.53 µM), 0.151; in assay [3] (first compound 8 µM) it was 0.131; in assay [4] (first compound 0.04 µM) it was 0.692; in assay [4] (first compound 0.1265 µM) it was 0.781; in assay [4] (first compound 0.4 µM) it was 0.784. Further, the results for the relative viability in assay [4] (first compound 1.265 µM) and in assay [4] (first compound 4 µM) were 0.642 and 0.614, respectively.
With NCI-H441, the relative viability came out at 0.915 in assay [2] (first compound 0.8 µM); 0.836 in assay [2] (first compound 2.53 µM); 0.704 in assay [2] (first compound 8 µM); 0.625 in assay [3] (first compound 0.08 µM); 0.499 in assay [3] (first compound 0.253 µM); 0.605 in assay [3] (first compound 0.8 µM). In addition, the relative viability was 0.479 in assay [3] (first compound 2.53 µM); 0.521 in assay [3] (first compound 8 µM); 0.946 in assay [4] (first compound 0.04 µM); 0.827 in assay [4] (first compound 0.1265 µM); 1.03 in assay [4] (first compound 0.4 µM); 0.739 in assay [4] (first compound 1.265 µM). Besides, the relative viability in assay [4] (first compound 4 µM) worked out at 0.835.
On to NCI-H522, for which the relative viability in assay [3] (first compound 0.08 µM) is 0.937; in assay [3] (first compound 0.253 µM) it was 0.974; in assay [3] (first compound 0.8 µM), 0.845; in assay [3] (first compound 2.53 µM) it was 0.855; in assay [3] (first compound 8 µM) it was 0.884; in assay [4] (first compound 0.04 µM), 0.921. In addition, the relative viability was determined as 0.907 in assay [4] (first compound 0.1265 µM), 0.892 in assay [4] (first compound 0.4 µM), 0.913 in assay [4] (first compound 1.265 µM) and 0.753 in assay [4] (first compound 4 µM).
As to NCI-H650, the relative viability in assay [1] (first compound 0.08 µM) came out at 0.966; in assay [1] (first compound 0.8 µM) it was 0.773; in assay [1] (first compound 2.53 µM), 1.11; in assay [1] (first compound 8 µM) it was 0.951; in assay [3] (first compound 0.08 µM), 0.44; in assay [3] (first compound 0.253 µM), 0.463. Further, the relative viability in assay [3] (first compound 0.8 µM) came out at 0.443; in assay [3] (first compound 2.53 µM), 0.47; in assay [3] (first compound 8 µM), 0.309; in assay [4] (first compound 0.1265 µM), 0.507; in assay [4] (first compound 0.4 µM) it was 0.325; in assay [4] (first compound 4 µM) it was 0.381.
Turning to NCI-H661, the relative viability in assay [1] (first compound 0.08 µM) turned out to be 0.466; in assay [1] (first compound 0.8 µM), 0.475; in assay [1] (first compound 2.53 µM), 0.479; in assay [1] (first compound 8 µM) it was 0.55; in assay [3] (first compound 0.08 µM), 1.01; in assay [3] (first compound 0.253 µM) it was 0.867. Moreover, the relative viability in assay [3] (first compound 0.8 µM) was found to be 0.971; in assay [3] (first compound 2.53 µM), 0.785; in assay [3] (first compound 8 µM), 0.868; in assay [4] (first compound 0.04 µM), 0.859; in assay [4] (first compound 0.1265 µM), 0.802; in assay [4] (first compound 0.4 µM), 0.845. Further, the relative viability was 0.826 in assay [4] (first compound 1.265 µM) and 0.886 in assay [4] (first compound 4 µM).
NCI-H1299: the relative viability was 0.96 in assay [1] (first compound 0.08 µM); 0.948 in assay [1] (first compound 0.8 µM); 1 in assay [1] (first compound 2.53 µM); 0.891 in assay [1] (first compound 8 µM); 1.09 in assay [2] (first compound 0.08 µM); 1.04 in assay [2] (first compound 0.8 µM). The relative viability in assay [2] (first compound 2.53 µM) stood at 1.02; in assay [2] (first compound 8 µM), 1.09.
As to NCI-H1563, the relative viability was found to be 0.747 in assay [1] (first compound 0.08 µM); 0.885 in assay [1] (first compound 0.8 µM); 0.896 in assay [1] (first compound 2.53 µM); 1.03 in assay [1] (first compound 8 µM); 0.435 in assay [3] (first compound 0.08 µM); 0.479 in assay [3] (first compound 0.253 µM). Further, the relative viability in assay [3] (first compound 0.8 µM) amounted to 0.451; in assay [3] (first compound 2.53 µM), 0.471; in assay [3] (first compound 8 µM), 0.436.
As for NCI-H1623, the relative viability in assay [3] (first compound 0.08 µM) stood at 0.59; in assay [3] (first compound 0.253 µM), 0.572; in assay [3] (first compound 0.8 µM), 0.608; in assay [3] (first compound 2.53 µM), 0.455; in assay [3] (first compound 8 µM), 0.514.
With NCI-H1648, the relative viability is 0.623 in assay [4] (first compound 0.04 µM); 0.81 in assay [4] (first compound 0.1265 µM); 0.754 in assay [4] (first compound 0.4 µM); 0.952 in assay [4] (first compound 1.265 µM); 0.899 in assay [4] (first compound 4 µM).
For the cell line NCI-H1703, the relative viability in assay [1] (first compound 0.08 µM) is 1.03; in assay [1] (first compound 0.8 µM) it was 1.51; in assay [1] (first compound 2.53 µM), 1.12; in assay [1] (first compound 8 µM), 1.03; in assay [2] (first compound 0.08 µM) it was 1.08; in assay [2] (first compound 0.8 µM), 1.59. In addition, the relative viability stood at 1.15 in assay [2] (first compound 2.53 µM) and 1.35 in assay [2] (first compound 8 µM).
Regarding NCI-H1792, the relative viability amounted to 0.893 in assay [1] (first compound 0.08 µM); 0.851 in assay [1] (first compound 0.8 µM); 0.913 in assay [1] (first compound 2.53 µM); 0.788 in assay [1] (first compound 8 µM); 0.611 in assay [2] (first compound 0.08 µM); 0.679 in assay [2] (first compound 0.8 µM). The relative viability was determined as 0.639 in assay [2] (first compound 2.53 µM); 0.589 in assay [2] (first compound 8 µM); 0.819 in assay [3] (first compound 0.08 µM); 0.685 in assay [3] (first compound 0.253 µM); 0.78 in assay [3] (first compound 0.8 µM); 0.724 in assay [3] (first compound 2.53 µM). Further, the relative viability in assay [3] (first compound 8 µM) was 0.552.
For NCI-H2342, the relative viability in assay [3] (first compound 0.08 µM) came to 0.32; in assay [3] (first compound 0.253 µM), 0.311; in assay [3] (first compound 0.8 µM) it was 0.308; in assay [3] (first compound 2.53 µM), 0.283; in assay [3] (first compound 8 µM) it was 0.32; in assay [4] (first compound 0.04 µM), 0.772. Besides, the relative viability turned out to be 0.744 in assay [4] (first compound 0.1265 µM), 0.704 in assay [4] (first compound 0.4 µM), 0.869 in assay [4] (first compound 1.265 µM) and 0.731 in assay [4] (first compound 4 µM).
With SW 900, the relative viability stood at 0.692 in assay [3] (first compound 0.08 µM); 0.574 in assay [3] (first compound 0.253 µM); 0.585 in assay [3] (first compound 0.8 µM); 0.621 in assay [3] (first compound 2.53 µM); 0.496 in assay [3] (first compound 8 µM); 0.716 in assay [4] (first compound 0.04 µM). Moreover, the relative viability in assay [4] (first compound 0.1265 µM) turned out to be 0.54; in assay [4] (first compound 0.4 µM), 0.738; in assay [4] (first compound 1.265 µM), 0.884; in assay [4] (first compound 4 µM), 0.877.
